The record followed here is the OligoGym collection.

The target in the data set is APOL1. As to conditions: ASO.

Where “and” joins values, the source holds several entries; their conditions need not be identical. Identical values can stand only once. After the bases stand the sugars from the 5' end (letter, count) and the backbone: PS all phosphorothioate, else s phosphorothioate and o phosphodiester by linkage. Methylation of C is not given here. e = 2'-O-(2-methoxyethyl) (MOE); k = constrained ethyl (cEt); d = 2'-deoxy (DNA)

“TTCTCATGGTACAGGA (sugars kkddddkekekkdddd, PS)” came in with a target mRNA inhibition (A431, 2 µM) of 20%.

Take “ATCAGATGGGTACTTC (sugars k2 d4 e3 k2 d5, PS)”: the target mRNA inhibition (A431, 2 µM) turned out to be 67%.

Regarding TGGGTCAAAAGCGATG (sugars k4 d9 k3, PS), the target mRNA inhibition worked out at 25% (A431, 0.0625 µM); 54% (A431, 0.25 µM); 77% (A431, 1 µM).

Sequence “TTGTAAGTGCAACCAA (sugars kkddddekekeddddd, PS)” had a target mRNA inhibition (A431, 2 µM) of 87%.

Turning to “TTCTATTAGAGGGCTA (sugars kddddkekekeddddd, PS)”, where the note is “A431, 2 µM”, the target mRNA inhibition is 34%.

“GTTTTGTAAGTGCAAC (sugars kkddddekekeddddd, PS)” gave a target mRNA inhibition (A431, 2 µM) of 86%.

In turn, “CACATCATTGGGTTAT (sugars kkddddkekekkdddd, PS)” displayed a target mRNA inhibition (A431, 2 µM) of 34%.

Consider “GTGAGTATTGTTTTTG (sugars kkddddekekeddddd, PS)”, for which the target mRNA inhibition (A431, 2 µM) is 93%.

Turning to AACTTTACCTCACCCT (sugars k4 d9 k3, PS), the target mRNA inhibition is, setting by setting: (A431, 0.0625 µM) 35%; (A431, 0.25 µM) 68%; (A431, 1 µM) 88%.

Regarding GGTTGTCCAGAGCTTT (sugars k4 d9 k3, PS), the target mRNA inhibition runs as follows: (A431, 0.0625 µM) 100%; (A431, 0.25 µM) 84%; (A431, 1 µM) 91%.

On to “TTCTCATGGTACAGGA (sugars kkddddekekeddddd, PS)”, for which, for the setting “A431, 2 µM”, the target mRNA inhibition turned out to be 79%.

In the case of GAATTATGGAATTGCA (sugars k4 d9 k3, PS), the target mRNA inhibition reads like this: (A431, 0.0625 µM) 59%; (A431, 0.25 µM) 82%; (A431, 1 µM) 92%.

“CAGTTTTGTAAGTGCA (sugars kkddddkdkdkddddd, PS)” came in with a target mRNA inhibition (A431, 0.04 µM) of 41%; a target mRNA inhibition (A431, 1 µM) of 95%; a target mRNA inhibition (A431, 2 µM) of 95%.

Where the note is “A431, 2 µM”, “TAATTCTATTAGAGGG (sugars kkddddekekeddddd, PS)” returned a target mRNA inhibition of 46%.

In turn, TCCAGATGTGTTTAGG (sugars k4 d9 k3, PS) registered a target mRNA inhibition (A431, 0.0625 µM) of 82%; a target mRNA inhibition (A431, 0.25 µM) of 89%; a target mRNA inhibition (A431, 1 µM) of 94%.

With “TATTTCTTGATGTGGT (sugars kkddddekekeddddd, PS)”, the target mRNA inhibition is, setting by setting: (A431, 0.0156 µM) 36%; (A431, 0.04 µM) 53% and 50%; (A431, 0.0625 µM) 66%; (A431, 0.25 µM) 90%; (A431, 1 µM) 98% and 96%; (A431, 2 µM) 99%.

In the case of CAGTCAGCAGGAGTAG (sugars k4 d9 k3, PS), the target mRNA inhibition reads like this: (A431, 0.0625 µM) 30%; (A431, 0.25 µM) 54%; (A431, 1 µM) 65%.

Under “A431, 2 µM”, “AATTCTATTAGAGGGC (sugars kkddddkekekddddd, PS)” gave a target mRNA inhibition of 56%.

On to “ATTCTCATGGTACAGG (sugars k3 d5 k3 d5, PS)”, for which the target mRNA inhibition (A431, 2 µM) is 97%.

“GGTTCAAAAGCAGCAT (sugars k3 d4 k3 e1 d5, PS)”: the target mRNA inhibition (A431, 2 µM) was found to be 74%.

Take “GCTAATTTTCTGACTG (sugars k2 d4 e3 k2 d5, PS)”: the target mRNA inhibition (A431, 0.0156 µM) is 35%; the target mRNA inhibition (A431, 0.0625 µM) is 62%; the target mRNA inhibition (A431, 0.25 µM) came out at 81%; the target mRNA inhibition (A431, 1 µM) amounted to 92%; the target mRNA inhibition (A431, 2 µM) turned out to be 94%.

For the sequence “CAGTTTTGTAAGTGCA (sugars kdddddkekekddddd, PS)”, the target mRNA inhibition is, setting by setting: (A431, 0.0156 µM) 0%; (A431, 0.0625 µM) 52%; (A431, 0.25 µM) 79%; (A431, 1 µM) 91%; (A431, 2 µM) 92%.

On to “CACTTTATACCAGTGT (sugars kkddddkekekddddd, PS)”, for which the target mRNA inhibition (A431, 2 µM) is 14%.

With “GAGTATTGTTTTTGTG (sugars kekddddeekkddddd, PS)”, under “A431, 2 µM”, the target mRNA inhibition turned out to be 90%.

Where the note is “A431, 2 µM”, “ACTTTATACCAGTGTC (sugars k3 d4 k3 e1 d5, PS)” registered a target mRNA inhibition of 58%.

The sequence “GTTATGAAATTATTGG (sugars kdddddkekekddddd, PS)” displayed a target mRNA inhibition (A431, 2 µM) of 73%.

“CTGAAGATTGGCTCTG (sugars kkkddddkekekdddd, PS)” registered a target mRNA inhibition (A431, 2 µM) of 36%.

On to “AAGATTGGCTCTGGCT (sugars k2 d4 e3 k2 d5, PS)”, for which the target mRNA inhibition (A431, 2 µM) turned out to be 63%.

For AAGGTTGTCCAGAGCT (sugars k4 d9 k3, PS), the target mRNA inhibition came out at 28% (A431, 0.0625 µM); 27% (A431, 0.25 µM); 65% (A431, 1 µM).

As for “ATCAGATGGGTACTTC (sugars kkddddkdkdkddddd, PS)”, where the note is “A431, 2 µM”, the target mRNA inhibition came out at 78%.

Consider GGAAATGAACGCAATG (sugars k4 d9 k3, PS), for which the target mRNA inhibition (A431, 0.0625 µM) was 37%; the target mRNA inhibition (A431, 0.25 µM) came out at 71%; the target mRNA inhibition (A431, 1 µM) turned out to be 87%.

Sequence “GTTATATTTGATCCTC (sugars kkddddkekekddddd, PS)” showed a target mRNA inhibition (A431, 2 µM) of 80%.

In turn, “GAAGATTGGCTCTGGC (sugars kkddddkekekkdddd, PS)” displayed a target mRNA inhibition (A431, 2 µM) of 10%.

With AGGGAAATGAACGCAA (sugars k4 d9 k3, PS), the target mRNA inhibition (A431, 0.0625 µM) stood at 38%; the target mRNA inhibition (A431, 0.25 µM) was 65%; the target mRNA inhibition (A431, 1 µM) was determined as 85%.

As to “TTTATACCAGTGTCTT (sugars k2 d4 e3 k2 d5, PS)”, the target mRNA inhibition (A431, 2 µM) was 88%.

For the sequence “AGTTTTGTAAGTGCAA (sugars k3 d4 k3 e1 d5, PS)”, the target mRNA inhibition reads like this: (A431, 0.0156 µM) 15%; (A431, 0.0625 µM) 60%; (A431, 0.25 µM) 87%; (A431, 1 µM) 94%; (A431, 2 µM) 96%.

On to “GGCAGTTTTGTAAGTG (sugars k2 d4 e3 k2 d5, PS)”, for which the target mRNA inhibition (A431, 2 µM) was found to be 80%.

For the setting “A431, 2 µM”, “CTTTAAACTCAGGTGA (sugars k3 d4 k3 e1 d5, PS)” yielded a target mRNA inhibition of 59%.

In turn, “GAATTATGGAATTGCA (sugars kkddddkekekddddd, PS)” had a target mRNA inhibition (A431, 2 µM) of 51%.

In the case of “GAGTATTGTTTTTGTG (sugars kkkddddkekeddddd, PS)”, the target mRNA inhibition (A431, 2 µM) was 81%.

As to “TGTTATATTTGATCCT (sugars kekddddeekkddddd, PS)”, the target mRNA inhibition (A431, 0.0156 µM) was determined as 31%; the target mRNA inhibition (A431, 0.0625 µM) worked out at 40%; the target mRNA inhibition (A431, 0.25 µM) turned out to be 70%; the target mRNA inhibition (A431, 1 µM) turned out to be 89%; the target mRNA inhibition (A431, 2 µM) was determined as 94%.

For the sequence CCTCATTGCAAATCCT (sugars k4 d9 k3, PS), the target mRNA inhibition reads like this: (A431, 0.0625 µM) 54%; (A431, 0.25 µM) 84%; (A431, 1 µM) 96%.

The sequence GAGAACATTGAAACAC (sugars k3 d10 k3, PS) had a target mRNA inhibition (A431, 0.0625 µM) of 19%; a target mRNA inhibition (A431, 0.25 µM) of 65%; a target mRNA inhibition (A431, 1 µM) of 86%.

With TCAGATGGGTACTTCT (sugars k4 d9 k3, PS), the target mRNA inhibition was 38% (A431, 0.0625 µM); 66% (A431, 0.25 µM); 83% (A431, 1 µM).

“GTATTTCTTGATGTGG (sugars kkdddddkekeddddd, PS)”: the target mRNA inhibition (A431, 0.0156 µM) was determined as 59%; the target mRNA inhibition (A431, 0.04 µM) is 64%; the target mRNA inhibition (A431, 0.0625 µM) came out at 89%; the target mRNA inhibition (A431, 0.25 µM) was determined as 97%; the target mRNA inhibition (A431, 1 µM) was 98% and 99%; the target mRNA inhibition (A431, 2 µM) is 98%.
